Source: patent US11319299B2, “Substituted carboxamides as inhibitors of WDR5 protein-protein binding” (PROPELLON THERAPEUTICS INC., priority 2016, dated 2022)

molecular target: WDR5 (Homo sapiens (Human), UniProt P61964); assay: Surface Plasmon Resonance (SPR) assay, KD and residence time; type: binding; details: surface plasmon resonance (SPR); read-out: WDR5 binding affinity (KD)

First: C[C@@H]1CN(c2cc(F)c(-c3ccc(N4CCOCC4)nc3)cc2NC(=O)c2ccc(F)cc2C(F)(F)F)C[C@H](C)N1C [Example 547, 4-fluoro-N-[4-fluoro-5-(6-morpholin-4-ylpyridin-3-yl)-2-[(3R,5S)-3,4,5-trimethylpiperazin-1-yl]phenyl]-2-(trifluoromethyl)benzamide]
Second: C[C@@H]1CN(c2cc(F)c(-c3cnc(N4CCOC(C)(C)C4)nc3)cc2NC(=O)c2ccc(F)cc2C(F)(F)F)C[C@H](C)N1C [Example 559, N-[5-[2-(2,2-dimethylmorpholin-4-yl)pyrimidin-5-yl]-4-fluoro-2-[(3R,5S)-3,4,5-trimethylpiperazin-1-yl]phenyl]-4-fluoro-2-(trifluoromethyl)benzamide]
The Kd of the first is 1.9-fold lower: 1.5 nM for the first, 2.92 nM for the second. The first binds more tightly here.

First: C[C@@H]1CN(c2cc(F)c(-c3ccc(N4CCNCC4)cc3)cc2NC(=O)c2c[nH]c(=O)cc2C(F)(F)F)C[C@H](C)N1C [Example 549, N-[4-fluoro-5-(4-piperazin-1-ylphenyl)-2-[(3R,5S)-3,4,5-trimethylpiperazin-1-yl]phenyl]-6-oxo-4-(trifluoromethyl)-1H-pyridine-3-carboxamide]
Second: C[C@@H]1CN(c2cc(F)c(-c3ccc(=O)n(C)c3)cc2NC(=O)c2c[nH]c(=O)cc2C(F)(F)F)C[C@H](C)N1C [Example 568, N-[4-fluoro-5-(1-methyl-6-oxopyridin-3-yl)-2-[(3R,5S)-3,4,5-trimethylpiperazin-1-yl]phenyl]-6-oxo-4-(trifluoromethyl)-1H-pyridine-3-carboxamide]
The Kd of the first is 5.7-fold lower: 0.8 nM for the first, 4.58 nM for the second.

Going from C[C@@H]1CN(c2cc(F)c(-c3ccc(F)c(C(N)=O)c3)cc2NC(=O)c2c[nH]c(=O)cc2C(F)(F)F)C[C@H](C)N1C [Example 550, N-[5-(3-carbamoyl-4-fluorophenyl)-4-fluoro-2-[(3R,5S)-3,4,5-trimethylpiperazin-1-yl]phenyl]-6-oxo-4-(trifluoromethyl)-1H-pyridine-3-carboxamide] to C[C@@H]1CN(c2cc(F)c(-c3ccc(C(N)=O)c(F)c3)cc2NC(=O)c2c[nH]c(=O)cc2C(F)(F)F)C[C@H](C)N1C [Example 551, N-[5-(4-carbamoyl-3-fluorophenyl)-4-fluoro-2-[(3R,5S)-3,4,5-trimethylpiperazin-1-yl]phenyl]-6-oxo-4-(trifluoromethyl)-1H-pyridine-3-carboxamide], the Kd falls from 2.5 nM to 0.6 nM (4.2-fold).

First: C[C@@H]1CN(c2cc(F)c(-c3ccc(F)c(C(N)=O)c3)cc2NC(=O)c2c[nH]c(=O)cc2C(F)F)C[C@H](C)N1C [Example 552, N-[5-(3-carbamoyl-4-fluorophenyl)-4-fluoro-2-[(3R,5S)-3,4,5-trimethylpiperazin-1-yl]phenyl]-4-(difluoromethyl)-6-oxo-1H-pyridine-3-carboxamide]
Second: C[C@@H]1CN(c2cc(F)c(-c3ccc(C(N)=O)c(F)c3)cc2NC(=O)c2c[nH]c(=O)cc2C(F)F)C[C@H](C)N1C [Example 553, N-[5-(4-carbamoyl-3-fluorophenyl)-4-fluoro-2-[(3R,5S)-3,4,5-trimethylpiperazin-1-yl]phenyl]-4-(difluoromethyl)-6-oxo-1H-pyridine-3-carboxamide]
The Kd of the first is 3.1-fold higher: 3.1 nM for the first, 1 nM for the second. The second binds more tightly here.

First: C[C@@H]1CN(c2cc(F)c(-c3ccc(F)c(C(N)=O)c3)cc2NC(=O)c2ccc(F)cc2C(F)(F)F)C[C@H](C)N1C [Example 556, 2-fluoro-5-[2-fluoro-5-[[4-fluoro-2-(trifluoromethyl)benzoyl]amino]-4-[(3R,5S)-3,4,5-trimethylpiperazin-1-yl]phenyl]benzamide]
Second: C[C@@H]1CN(c2cc(F)c(-c3c[nH]c(=O)c(F)c3)cc2NC(=O)c2c[nH]c(=O)cc2C(F)(F)F)C[C@H](C)N1C [Example 562, N-[4-fluoro-5-(5-fluoro-6-oxo-1H-pyridin-3-yl)-2-[(3R,5S)-3,4,5-trimethylpiperazin-1-yl]phenyl]-6-oxo-4-(trifluoromethyl)-1H-pyridine-3-carboxamide]
The Kd of the first is 12-fold higher: 10.4 nM for the first, 0.904 nM for the second. The second binds more tightly here.

Compared with O=C(Nc1cc(-c2cnc(N3CCOCC3)nc2)c(F)cc1N1CCN(C2CC2)CC1)c1c[nH]c(=O)cc1C(F)(F)F [Example 561, N-[2-(4-cyclopropylpiperazin-1-yl)-4-fluoro-5-(2-morpholin-4-ylpyrimidin-5-yl)phenyl]-6-oxo-4-(trifluoromethyl)-1H-pyridine-3-carboxamide], COCCCN(C)C1CCN(c2cc(F)c(-c3cnc(N4CCOCC4)nc3)cc2NC(=O)c2c[nH]c(=O)cc2C(F)(F)F)C1 (stereo not drawn) [Example 572, N-[4-fluoro-2-[3-[3-methoxypropyl(methyl)amino]pyrrolidin-1-yl]-5-(2-morpholin-4-ylpyrimidin-5-yl)phenyl]-6-oxo-4-(trifluoromethyl)-1H-pyridine-3-carboxamide] is 4.8-fold higher in Kd: 23.5 nM for the first, 113 nM for the second.

First: C[C@@H]1CN(c2cc(F)c(-c3cncc(NC(=O)OCc4ccccc4)c3)cc2NC(=O)c2c[nH]c(=O)cc2C(F)(F)F)C[C@H](C)N1C [Example 563, benzyl N-[5-[2-fluoro-5-[[6-oxo-4-(trifluoromethyl)-1H-pyridine-3-carbonyl]amino]-4-[(3R,5S)-3,4,5-trimethylpiperazin-1-yl]phenyl]pyridin-3-yl]carbamate]
Second: C[C@@H]1CN(c2cc(F)c(-c3ccn(C)c(=O)c3)cc2NC(=O)c2c[nH]c(=O)cc2C(F)(F)F)C[C@H](C)N1C [Example 567, N-[4-fluoro-5-(1-methyl-2-oxopyridin-4-yl)-2-[(3R,5S)-3,4,5-trimethylpiperazin-1-yl]phenyl]-6-oxo-4-(trifluoromethyl)-1H-pyridine-3-carboxamide]
The Kd of the first is 2.8-fold higher: 3.32 nM for the first, 1.18 nM for the second. The second binds more tightly here.

First: C[C@@H]1CN(c2cc(F)c(-c3cc(F)c(=O)n(C)c3)cc2NC(=O)c2c[nH]c(=O)cc2C(F)(F)F)C[C@H](C)N1C [Example 564, N-[4-fluoro-5-(5-fluoro-1-methyl-6-oxopyridin-3-yl)-2-[(3R,5S)-3,4,5-trimethylpiperazin-1-yl]phenyl]-6-oxo-4-(trifluoromethyl)-1H-pyridine-3-carboxamide]
Second: C[C@@H]1CN(c2cc(F)c(-c3cnc4c(c3)CC(=O)N4)cc2NC(=O)c2c[nH]c(=O)cc2C(F)(F)F)C[C@H](C)N1C [Example 566, N-[4-fluoro-5-(2-oxo-1,3-dihydropyrrolo[2,3-b]pyridin-5-yl)-2-[(3R,5S)-3,4,5-trimethylpiperazin-1-yl]phenyl]-6-oxo-4-(trifluoromethyl)-1H-pyridine-3-carboxamide]
The Kd of the first is 1.7-fold higher: 1.52 nM for the first, 0.896 nM for the second. The second binds more tightly here.

Compared with COc1ccc(C(=O)N2CC=C(c3cc(NC(=O)c4c[nH]c(=O)cc4C(F)(F)F)c(N4C[C@@H](C)N(C)[C@@H](C)C4)cc3F)CC2)cc1 [Example 565, N-[4-fluoro-5-[1-(4-methoxybenzoyl)-3,6-dihydro-2H-pyridin-4-yl]-2-[(3R,5S)-3,4,5-trimethylpiperazin-1-yl]phenyl]-6-oxo-4-(trifluoromethyl)-1H-pyridine-3-carboxamide], C[C@@H]1CN(c2cc(F)c(C3=CCN(C(=O)C4CCCCC4)CC3)cc2NC(=O)c2c[nH]c(=O)cc2C(F)(F)F)C[C@H](C)N1C [Example 569, N-[5-[1-(cyclohexanecarbonyl)-3,6-dihydro-2H-pyridin-4-yl]-4-fluoro-2-[(3R,5S)-3,4,5-trimethylpiperazin-1-yl]phenyl]-6-oxo-4-(trifluoromethyl)-1H-pyridine-3-carboxamide] is 2.1-fold higher in Kd: 0.943 nM for the first, 1.99 nM for the second.
